Test system: P. falciparum 3D7 growth, pLDH absorbance
Assay: P. falciparum 3D7 growth inhibition, dose response, strain 3D7 (AID 2305)

Compound	IC50 [nM]
Clc1ccc(-c2cc(-c3csc(NCCN4CCCCC4)n3)on2)cc1	990
COc1ccc(CN2CCCN(Cc3cccc(NC(=O)c4ccc5ccccc5c4)c3)CC2)cc1	1000
COc1ccccc1N(C)CCNc1cc(C)nc(Nc2ccccc2)n1	1070
Cc1ccc(Nc2nc(NN=Cc3cc4c(cc3Br)OCO4)nc(Nc3ccc([N+](=O)[O-])cc3)n2)cc1C	750
CC[C@H](C)CNC(=O)c1cncc(-c2cccc(CN3CCC(N4CCCC4)CC3)c2)c1	1170
CN1CCC(C(=O)N(Cc2ccc(-c3ccc(CNCCc4ccc(S(C)(=O)=O)cc4)cn3)cc2)C2Cc3ccccc3C2)CC1	660
CCc1c[nH]c2c(N3CCCS3(=O)=O)cc(C(=O)N[C@@H](Cc3ccccc3)[C@H](O)CNC3CCCCC3)cc12	770
CN1CCN(c2ccc(Nc3nccc(-c4cnn5ncccc45)n3)cc2Cl)CC1	830
O=[N+]([O-])c1cccc(CNC2CCN(Cc3ccc(C(F)(F)F)cc3)CC2)c1	740
CC1CN(c2cc(=O)n(Cc3cccc(NC(=O)Nc4ccc(-c5ccccc5)cc4)c3)cn2)CC(C)N1 (centres undefined)	400
COc1cc(NC(=O)/C=C/c2ccccc2OC(F)(F)F)cc(OCCN2CCN(CCN3CCOCC3)CC2)c1	160
O=C(CC(=O)C(F)(F)F)c1ccc2c(c1)OCO2	740
CC(=O)Nc1nc(C(=O)Nc2cccc(-c3cccc(-c4nc5c(C)cccc5[nH]4)c3)c2)cs1	110
CN(C(=O)Cc1ccc(Cl)cc1)C1CCN(CCCCCNC(=O)/C=C/c2ccc(Cl)c(Cl)c2)CC1	720
C=CC[C@H](C[C@H](O)[C@H](Cc1ccccc1)NC(=O)c1ccc(-c2cccnn2)cc1)C(=O)NC1CCCCC1	1190
Nc1nc(N)c2c(ccc3c2ccn3Cc2ccc(-c3ccccc3)cc2)n1	50
Cc1ccc2nc(-c3cc(-c4cccc(CCN5CCOCC5)c4)cnc3N)[nH]c2c1	170
CC(C)(C)c1ccc(NC(=O)c2cccc(CN3CCN(Cc4cccc(O)c4)CC3)c2)cc1	1400
O=C(/C=C/c1ccc(Cl)c(Cl)c1)NCCCCN1CCCN(C(=O)Nc2ccc(F)c(Cl)c2)CC1	1510
NCC1CCCN1Cc1ccc(-c2cccc(-c3nc4ccc(C(F)(F)F)cc4[nH]3)c2)cc1 (centres undefined)	830
Cc1cc(Oc2cc(NC(=O)c3sc4ncn(Cc5ccccc5F)c(=O)c4c3C)cc([N+](=O)[O-])c2)ccc1Cl	1150
Cc1[nH]c(C)c(-c2ccc(-c3ccc(Cl)cc3)cc2)c(=O)c1Cl	210
CCCCCCc1cc2cc(-c3csc(C=Cc4ccccc4)n3)c(=O)oc2cc1O	970
COc1ccc(CNC2CCN(C)CC2)cc1-c1ccc(S(=O)(=O)NCc2cccnc2)s1	840
Cc1cccc2[nH]c(-c3cccc(-c4ccc(NC(=O)c5cnn6cccnc56)cc4)c3)nc12	210

Compound	IC50 [nM]
CCOC(=O)c1cccc(N/C(N)=N/c2nc(C)cc(NCCc3ccccc3)n2)c1	680
COc1ccc(Nc2nccc(NCC(O)c3ccc(C(F)(F)F)cc3)n2)cc1 (centres undefined)	550
COc1ccc2nccc([C@@H](O)CN3CCC(NC(=O)Cc4cccc5c(Br)cccc45)CC3)c2c1	800
CC(C)(C)c1nn(-c2ccccc2)c2[nH]c(=O)c(CNC3CCCC3)cc12	850
COc1ccc2ccccc2c1C=NNc1cc(C)nc2cc(C(F)(F)F)ccc12	1040
Cc1cccc2[nH]c(-c3cccc(-c4ccc(NC(=O)N[C@@H]5C[C@H]5c5ccccc5)cc4)c3)nc12	720
CCc1ccc(NC(=O)c2ccc(CN3CCCN(Cc4cccc(O)c4)CC3)cc2)cc1	670
Cc1ccnc(Nc2nc(-c3ccccn3)cs2)c1	1000
Nc1nc2c(ncn2COC2COP(=O)(O)OC2)c(=O)[nH]1 (centres undefined)	450
Cn1c(NC(=O)C2CCCN(C(=O)c3ccc(O)c(-c4ccc(Cl)c(Cl)c4)c3)C2)nc2ccccc21 (centres undefined)	750
NC(=O)c1ccc(NCC(=O)Nc2cccc(-c3cccc(-c4nc5ccc(F)cc5[nH]4)c3)c2)cc1	870
O=C(Nc1ccc(N2CCNCC2)nc1)c1oc(-c2ccccc2)nc1C(F)(F)F	980
Cc1cccc2[nH]c(-c3cccc(-c4ccc(NC(=O)C5CCCO5)cc4)c3)nc12 (centres undefined)	900
O=C(Nc1ccc(Cl)c(Cl)c1)N[C@H]1CCN(CCCCCNC(=O)[C@@H]2C[C@H]2c2ccc(Cl)c(Cl)c2)C1	1030
O=C(Nc1cccc(-c2ccc(-c3nc4ccc(F)cc4[nH]3)s2)c1)c1cccnc1	610
CCC(C)(C)c1ccc(N2C(N)=NC(N)=NC2(C)C)cc1	10
CC(C)c1cc2c(ccc3nc(N)nc(N)c32)o1	90
Cc1cc(-c2ccc(CNC3CCN(C)CC3)cc2)ccc1S(=O)(=O)NCc1ccccc1	850
O=C(Nc1cccc(F)c1)NC1CCN(c2ccnc3cc(Cl)ccc23)C1 (centres undefined)	190
CCOCCCNc1ncc(-c2ccsc2)c(-c2nc(C)cs2)n1	270
COc1ccc2ncc(F)c(CCN3CC[C@@H](CNCc4cc(C)c5c(c4)OCCO5)C3)c2n1	890
COc1cc(NC2CCCC(NCc3cn(S(=O)(=O)c4ccccc4)c4ccccc34)C2)nc2ccccc12 (centres undefined)	250
CC1(C)N=C(N)N=C(N)N1OCCCOc1ccc(N)cc1	10
CCCCc1ccc(Cc2cnc3nc(N)nc(N)c3c2C)cc1	230
CCCCCCCc1[nH]c2ccccc2c(=O)c1C	510

Compound	IC50 [nM]
O=c1ccc2ccc(F)cc2n1CCN1CCC(NCc2ccc(-c3ccccn3)s2)CC1	890
Nc1nc(N)c2c3c(ccc2n1)NCCC3	730
COc1ccc2c(NN=Cc3cccc(Cl)c3)ccnc2c1	720
Cc1cccc2[nH]c(-c3cccc(-c4ccc(CNCc5ccccc5)cc4)c3)nc12	150
Cc1ccc(O)cc1Nc1ccnc2ccc(-c3cccc(CN(C)C)c3)cc12	510
Cc1ccc(OCC2CCN(c3ncc(C(=O)NCCCN4CCCC4=O)cc3Cl)CC2)cc1	1260
Fc1ccc2[nH]cc(CCN3CCC(CNCc4ccccc4)CC3)c2c1	30
OC(CNC12CC3CC(CC(C3)C1)C2)c1cccc(C(F)(F)F)c1 (centres undefined)	300
CCCCCCN1CCN(Cc2cccc(NC(=O)c3cc4ccccc4o3)c2)CC1	910
Fc1cccc(C=NNc2ccnc3ccc(C(F)(F)F)cc23)c1	730
O=[N+]([O-])c1cccc(-c2nc(-c3ccc(Br)cc3)[nH]c2-c2ccc(Br)cc2)c1	760
O[C@@H](c1ccccc1)[C@@H]1CN(CCC2C[C@@H]3CC[C@H]2C3)CC[C@@]1(O)c1ccccc1 (some centres undefined)	350
CC[C@@]1(O)C(=O)OCc2c1cc1n(c2=O)Cc2c-1nc1cc3c(cc1c2CN1CCN(C)CC1)OCCO3	450
Cn1cncc1CCN(Cc1ccc(-c2ccc(C(F)(F)F)cc2)cc1)C(=O)Cn1c(CCc2cccc(F)c2F)cc(=O)c2cccnc21	850
O=S(=O)(Nc1ccc(CCN2CCCCC2CCN2CCCC2)cc1)c1cccc2cccnc12 (centres undefined)	1300
COc1ccc2nccc([C@@H](O)CN3CCC(NC(=O)/C=C/c4ccc5cc(C)[nH]c5c4)CC3)c2c1	730
Cc1c(F)cc(C(=O)NC2CC2)cc1-c1ccc2c(cnn2S(=O)(=O)c2cccs2)c1	860
O=C(c1cc(-c2ccco2)[nH]n1)N1CCN(S(=O)(=O)c2ccc(Br)cc2)CC1	500
Fc1ccc(CNc2nc(-c3ccc(F)c(C(F)(F)F)c3)n(-c3cccc(C(F)(F)F)c3)n2)cc1	560
CC(C)N1CCN(c2ccc(OCCCN3CCN(c4cccc(Cl)c4Cl)CC3)c(C(F)(F)F)c2)CC1	810
O=C(Nc1ccc(F)c(F)c1)c1ccc(CN2CCCN(Cc3cccc(F)c3)CC2)cc1	1120
CC(=O)c1sc(NC(=O)Nc2ccc(C)cc2C)nc1C	910
CC(CN1CCN(C)CC1)C(=O)Nc1ccc(-c2cccc(-c3nc4ccc(F)cc4[nH]3)c2)cc1 (centres undefined)	520
CCCN1CCN(CCCCNc2c3ccccc3nc3ccccc23)CC1	410
CC1CCCN1Cc1ccc(-c2ccc3c(=O)cc(CCc4cccc(F)c4F)n(CC(=O)N(C)Cc4ccc(-c5ccc(C(F)(F)F)cc5)cc4)c3n2)cc1 (centres undefined)	820

Compound	IC50 [nM]
COc1ccc(Nc2cc(C)c3cc(NC(=O)c4ccncc4)ccc3n2)cc1	910
Cc1cc(Nc2ccc(C(C)(C)C)cc2)c2[nH]ncc2n1	1160
CCN1[C@@H](c2ccc(Cl)cc2)[C@@H](CNCc2ccccc2O)C[C@@]1(C)CO	310
O=C(Nc1ccc2c(c1)OCO2)NC1CCN(c2ccnc(NCc3ccc(F)cc3)n2)CC1	940
OC(CNc1ccnc(Nc2ccc(Cl)cc2)n1)c1cccc(C(F)(F)F)c1 (centres undefined)	680
COc1cc(C)nc2ccc(NC(=O)Nc3ccc4nc(C)cc(OC)c4c3)cc12	550
O=C(Nc1ccc(SC(F)(F)F)cc1)Nc1ccnc2ccccc12	750
Cc1nc2nc(N)nc(N)c2c(C)c1Cc1ccc(C(F)(F)F)cc1	750
Cc1cc(-c2cc3nc4c(c(=O)n3[nH]2)CCCC4)c(C)o1	820
COc1ccc(NC(=O)CSc2nc(-c3ccccc3Cl)ns2)cc1OC	760
COc1ccc(CN(C)Cc2cc(C(C)C)c(C)cc2O)cc1F	650
O=C(NCCCCN1CCC(c2ccc3ccccc3c2O)CC1)c1ccc(NC(=O)c2ccc(Cl)cc2)cc1	1010
Nc1ccc(-c2ccc(NC(=O)Nc3cc(C(F)(F)F)ccc3F)cc2)cn1	660
CCCCCOc1ccc(NC2=CC(=O)C(=O)c3ccccc32)cc1	240
O=C(NC1CCC(CCN2Cc3cccc(C(F)(F)F)c3C2)CC1)c1cccc(-c2cccnc2)c1 (centres undefined)	1020
Fc1ccc2nc(-c3ccc(-c4cccc(CN5CCCCC5)c4)cc3)[nH]c2c1	270
COc1ccc2nccc(N3CCN(CCNCc4ccc5c(n4)NC(=O)CS5)CC3)c2c1	950
Cc1ccc(Oc2c(-c3ccccc3CN3CCCC3CN(C)C)cnn(C)c2=O)cn1 (centres undefined)	1160
FC(F)(F)c1cccc(-c2cc(NCCCn3ccnc3)nc(-c3ccncc3)n2)c1	110
Cc1onc(-c2c(Cl)cccc2Cl)c1C(=O)N1CCc2cc3nccc(N4CCN5CCC[C@H]5C4)c3cc21	770
CN(CC(=O)N1CCN(S(=O)(=O)c2cccc(Cl)c2)CC1CN1CCCC1)c1ccc(Cl)c(Cl)c1 (centres undefined)	1240
COc1cc(N)cc2sc(N)nc12	250
O=C1C([N+](=O)[O-])=C(O)c2cccc(F)c21	150
CC(C)c1ccc(NC(=O)c2ccc(C(=O)NC3CCN(Cc4ccccc4)CC3)cc2)cc1	980
